Patent US20110224208A1, “NOVEL INHIBITORS OF FLAVIVIRUS REPLICATION” (KATHOLIEKE UNIVERSITEIT LEUVEN, K.U. LEUVEN R&D, priority 2008, published 2011)
≈ marks a conversion by molar mass, not a printed value.

Key:
[1] = Proliferation of exponentially growing Huh-5-2 cells (MTS method); conditions: human, CC50, concentration required to inhibit the proliferation of exponentially growing Huh-5-2 cells by 50%; Table 2
Summary of the method: (§1)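 Huh-5-2 cells carrying the luciferase HCV replicon, seeded 24 h, then exposed to serial compound dilutions without G418 for 72 h at 37° C, 5% CO2. Replication read as luciferase luminescence, expressed as percentage of untreated cultures; culture density measured in parallel by MTS.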

[2] = tested on: HCV replicon I389luc-ubi-neo/NS3-3'/5.1; test: Anti-HCV replicon assay (luciferase activity) in Huh-5-2 cells; format: cell-based, Hepatitis C virus; conditions: Hepatitis C virus, Huh-5-2, 72 h, concentration required to inhibit luciferase activity in the replicon system by 50%
Summary of the method: as §1

Work on COCCN1C(=O)c2ccccc2C(C(=O)Nc2cc(OC)cc(OC)c2)C1c1cccs1 (stereo not drawn) [C130, N-(3,5-dimethoxyphenyl)-2-(2-methoxyethyl)-1-oxo-3-(thiophen-2-yl)-1,2,3,4-tetrahydroisoquinoline-4-carboxamide] yielded a CC50 at 72 h [1] of 91.8 µg/mL (≈ 197 µM) and an IC50 [2] of 0.8 µg/mL (≈ 1.71 µM).

In the case of CCOCCN1C(=O)c2ccccc2C(C(=O)Nc2cccc(OC)c2)C1c1cccs1 (stereo not drawn) [C65, 2-(2-Ethoxyethyl)-N-(3-methoxyphenyl)-1-oxo-3-(thiophen-2-yl)-1,2,3,4-tetrahydroisoquinoline-4-carboxamide], the CC50 at 72 h [1] is reported as 90.2 µg/mL (≈ 200 µM) and the IC50 [2] is reported as 1.76 µg/mL (≈ 3.91 µM).

With COCCN1C(=O)c2cccc(OC)c2C(C(=O)Nc2cccc(OC)c2)C1c1cccs1 (stereo not drawn) [C148, 5-methoxy-2-(2-methoxyethyl)-N-(3-methoxyphenyl)-1-oxo-3-(thiophen-2-yl)-1,2,3,4-tetrahydroisoquinoline-4-carboxamide] the CC50 at 72 h [1] was 52.1 µg/mL (≈ 112 µM) and the IC50 [2] was 24.6 µg/mL (≈ 52.6 µM).

Molecule COCCN1C(=O)c2c(ccc(C)c2F)C(C(=O)Nc2cccc(OC)c2)C1c1cccs1 (stereo not drawn) [C93, 8-fluoro-2-(2-methoxyethyl)-N-(3-methoxyphenyl)-7-methyl-1-oxo-3-(thiophen-2-yl)-1,2,3,4-tetrahydroisoquinoline-4-carboxamide] has a CC50 at 72 h [1] of 32.9 µg/mL (≈ 70.2 µM) and an IC50 [2] of 0.17 µg/mL (≈ 0.363 µM).

For CCOc1cccc(NC(=O)C2c3ccccc3C(=O)N(CCOC)C2c2cccs2)c1 (stereo not drawn) [C59, N-(3-ethoxyphenyl)-2-(2-methoxyethyl)-1-oxo-3-(thiophen-2-yl)-1,2,3,4-tetrahydroisoquinoline-4-carboxamide], the CC50 at 72 h [1] was 88.1 µg/mL (≈ 196 µM) and the IC50 [2] was 0.3 µg/mL (≈ 0.666 µM).

COCCN1C(=O)c2ccccc2C(C(=O)N(C)c2cccc(OC)c2)C1c1cccs1 (stereo not drawn) [C151, 2-(2-methoxyethyl)-N-(3-methoxyphenyl)-N-methyl-1-oxo-3-(thiophen-2-yl)-1,2,3,4-tetrahydroisoquinoline-4-carboxamide] showed a CC50 at 72 h [1] of 52 µg/mL (≈ 115 µM) and an IC50 [2] of 22.8 µg/mL (≈ 50.7 µM).

COCCN1C(=O)c2ccccc2C(C(=O)Nc2cc(C)no2)C1c1cccs1 (stereo not drawn) [C127, 2-(2-methoxyethyl)-N-(3-methylisoxazol-5-yl)-1-oxo-3-(thiophen-2-yl)-1,2,3,4-tetrahydroisoquinoline-4-carboxamide] gave a CC50 at 72 h [1] of 87.2 µg/mL (≈ 212 µM) and an IC50 [2] of 10.3 µg/mL (≈ 25 µM).

Molecule CCN1C(=O)c2ccccc2C(C(=O)Nc2cccc(OC)c2)C1c1cccs1 (stereo not drawn) [C5, 2-Ethyl-N-(3-methoxyphenyl)-1-oxo-3-(thiophen-2-yl)-1,2,3,4-tetrahydroisoquinoline-4-carboxamide] has a CC50 at 72 h [1] of 33.4 µg/mL (≈ 82.2 µM) and an IC50 [2] of 3.6 µg/mL (≈ 8.86 µM).

Work on COCCN1C(=O)c2ccccc2C(C(=O)Nc2ccc(-c3ccn(C)n3)cc2)C1c1cccs1 (stereo not drawn) [C203, 2-(2-methoxyethyl)-N-(4-(1-methyl-1H-pyrazol-3-yl)phenyl)-1-oxo-3-(thiophen-2-yl)-1,2,3,4-tetrahydroisoquinoline-4-carboxamide] yielded a CC50 at 72 h [1] of 9.4 µg/mL (≈ 19.3 µM) and an IC50 [2] of 0.019 µg/mL (≈ 0.039 µM).

Work on COCCN1C(=O)c2ccccc2C(C(=O)Nc2ccc(C(F)(F)F)cc2)C1c1cccs1 (stereo not drawn) [C19, 2-(2-Methoxyethyl)-1-oxo-3-(thiophen-2-yl)-N-(4-(trifluoromethyl)phenyl)-1,2,3,4-tetrahydroisoquinoline-4-carboxamide] yielded a CC50 at 72 h [1] of 12.1 µg/mL (≈ 25.5 µM) and an IC50 [2] of 5.2 µg/mL (≈ 11 µM).

Molecule COc1cccc(NC(=O)C2c3ccccc3C(=O)N(CC(F)(F)F)C2c2cccs2)c1 (stereo not drawn) [C62, N-(3-methoxyphenyl)-1-oxo-3-(thiophen-2-yl)-2-(2,2,2-trifluoroethyl)-1,2,3,4-tetrahydroisoquinoline-4-carboxamide] has a CC50 at 72 h [1] of 16.4 µg/mL (≈ 35.5 µM) and an IC50 [2] of 8.81 µg/mL (≈ 19.1 µM).

In the case of COc1cccc(NC(=O)C2c3ccccc3C(=O)N(CCOC(C)C)C2c2cccs2)c1 (stereo not drawn) [C66, 2-(2-Isopropoxyethyl)-N-(3-methoxyphenyl)-1-oxo-3-(thiophen-2-yl)-1,2,3,4-tetrahydroisoquinoline-4-carboxamide], the CC50 at 72 h [1] is reported as 39.2 µg/mL (≈ 84.4 µM) and the IC50 [2] is reported as 1.99 µg/mL (≈ 4.28 µM).

COCCN1C(=O)c2ccccc2C(C(=O)NCc2cccc3ccccc23)C1c1cccs1 (stereo not drawn) [C72, 2-(2-methoxyethyl)-N-(naphthalen-1-ylmethyl)-1-oxo-3-(thiophen-2-yl)-1,2,3,4-tetrahydroisoquinoline-4-carboxamide] showed a CC50 at 72 h [1] of 71.2 µg/mL (≈ 151 µM) and an IC50 [2] of 35.8 µg/mL (≈ 76.1 µM).

COCCN1C(=O)c2ccccc2C(C(=O)Nc2ccc(F)c(F)c2)C1c1cccs1 (stereo not drawn) [C88, N-(3,4-difluorophenyl)-2-(2-methoxyethyl)-1-oxo-3-(thiophen-2-yl)-1,2,3,4-tetrahydroisoquinoline-4-carboxamide] showed a CC50 at 72 h [1] of 60 µg/mL (≈ 136 µM) and an IC50 [2] of 2.7 µg/mL (≈ 6.1 µM).

With COCCN1C(=O)c2ccccc2C(C(=O)Nc2cccc(Cc3ccccc3)c2)C1c1cccs1 (stereo not drawn) [C89, N-(3-benzylphenyl)-2-(2-methoxyethyl)-1-oxo-3-(thiophen-2-yl)-1,2,3,4-tetrahydroisoquinoline-4-carboxamide] the CC50 at 72 h [1] was 0.62 µg/mL (≈ 1.25 µM) and the IC50 [2] was 0.11 µg/mL (≈ 0.221 µM).

For COCCN1C(=O)c2ccccc2C(C(=O)Nc2cccc(Cn3ccnc3)c2)C1c1cccs1 (stereo not drawn) [C212, N-(3-((1H-imidazol-1-yl)methyl)phenyl)-2-(2-methoxyethyl)-1-oxo-3-(thiophen-2-yl)-1,2,3,4-tetrahydroisoquinoline-4-carboxamide], the CC50 at 72 h [1] was 52.6 µg/mL (≈ 108 µM) and the IC50 [2] was 0.16 µg/mL (≈ 0.329 µM).

With COCCN1C(=O)c2ccccc2C(C(=O)Nc2cccc(N3CCCC3)c2)C1c1cccs1 (stereo not drawn) [C122, 2-(2-methoxyethyl)-1-oxo-N-(3-(pyrrolidin-1-yl)phenyl)-3-(thiophen-2-yl)-1,2,3,4-tetrahydroisoquinoline-4-carboxamide] the CC50 at 72 h [1] was 81.3 µg/mL (≈ 171 µM) and the IC50 [2] was 0.37 µg/mL (≈ 0.778 µM).

With COCCN1C(=O)c2ccccc2C(C(=O)Nc2cc(C(C)(C)C)[nH]n2)C1c1cccs1 (stereo not drawn) [C185, N-(5-tert-butyl-1H-pyrazol-3-yl)-2-(2-methoxyethyl)-1-oxo-3-(thiophen-2-yl)-1,2,3,4-tetrahydroisoquinoline-4-carboxamide] the CC50 at 72 h [1] was 19 µg/mL (≈ 42 µM) and the IC50 [2] was 10.4 µg/mL (≈ 23 µM).

COCCN1C(=O)c2ccccc2C(C(=O)Nc2cccc(OC)c2)C1C#Cc1ccccc1 (stereo not drawn) [C119, 2-(2-methoxyethyl)-N-(3-methoxyphenyl)-1-oxo-3-(phenylethynyl)-1,2,3,4-tetrahydroisoquinoline-4-carboxamide] gave a CC50 at 72 h [1] of 94 µg/mL (≈ 207 µM) and an IC50 [2] of 4.63 µg/mL (≈ 10.2 µM).

Work on COCCN1C(=O)c2ccccc2C(C(=O)Nc2cccc(OC)c2)C1CC1CCOCC1 (stereo not drawn) [C97, 2-(2-methoxyethyl)-N-(3-methoxyphenyl)-1-oxo-3-((tetrahydro-2H-pyran-4-yl)methyl)-1,2,3,4-tetrahydroisoquinoline-4-carboxamide] yielded a CC50 at 72 h [1] of 80 µg/mL (≈ 177 µM) and an IC50 [2] of 51.6 µg/mL (≈ 114 µM).

In the case of COCCN1C(=O)c2ccccc2C(C(=O)Nc2nc(C(C)(C)C)cs2)C1c1cccs1 (stereo not drawn) [C177, N-(4-tert-butylthiazol-2-yl)-2-(2-methoxyethyl)-1-oxo-3-(thiophen-2-yl)-1,2,3,4-tetrahydroisoquinoline-4-carboxamide], the CC50 at 72 h [1] is reported as 3.16 µg/mL (≈ 6.73 µM) and the IC50 [2] is reported as 0.5 µg/mL (≈ 1.06 µM).
